BindingDB's records for doi:10.1021/acs.jmedchem.5b01153 (University of Illinois At Chicago, 2016)

What was measured:
[1] = target: T1, 5-hydroxytryptamine receptor 2C (Homo sapiens, UniProt P28335); experiment: Agonist activity at recombinant human 5HT2C-INI receptor expressed in Flp-In-293 cells assessed as calcium flux by FLIPR assay
T1 sequence (P28335 whole entry): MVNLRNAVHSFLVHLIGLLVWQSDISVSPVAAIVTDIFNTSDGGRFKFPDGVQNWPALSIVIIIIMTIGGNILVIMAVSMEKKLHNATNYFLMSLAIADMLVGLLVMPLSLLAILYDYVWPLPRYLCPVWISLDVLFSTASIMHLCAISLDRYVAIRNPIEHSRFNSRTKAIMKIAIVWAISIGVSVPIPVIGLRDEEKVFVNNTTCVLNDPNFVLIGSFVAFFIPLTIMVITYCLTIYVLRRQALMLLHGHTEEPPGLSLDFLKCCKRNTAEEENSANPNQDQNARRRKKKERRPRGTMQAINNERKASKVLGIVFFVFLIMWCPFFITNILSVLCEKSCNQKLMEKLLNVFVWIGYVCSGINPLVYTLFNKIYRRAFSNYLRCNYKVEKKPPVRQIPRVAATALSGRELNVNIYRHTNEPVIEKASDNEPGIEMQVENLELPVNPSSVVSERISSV

[2] = target: 5-hydroxytryptamine receptor 2B (Homo sapiens, UniProt P41595); experiment: Agonist activity at recombinant human 5HT2B receptor expressed in Flp-In-293 cells assessed as calcium flux by FLIPR assay
Sequence of 5-hydroxytryptamine receptor 2B (P41595 whole entry): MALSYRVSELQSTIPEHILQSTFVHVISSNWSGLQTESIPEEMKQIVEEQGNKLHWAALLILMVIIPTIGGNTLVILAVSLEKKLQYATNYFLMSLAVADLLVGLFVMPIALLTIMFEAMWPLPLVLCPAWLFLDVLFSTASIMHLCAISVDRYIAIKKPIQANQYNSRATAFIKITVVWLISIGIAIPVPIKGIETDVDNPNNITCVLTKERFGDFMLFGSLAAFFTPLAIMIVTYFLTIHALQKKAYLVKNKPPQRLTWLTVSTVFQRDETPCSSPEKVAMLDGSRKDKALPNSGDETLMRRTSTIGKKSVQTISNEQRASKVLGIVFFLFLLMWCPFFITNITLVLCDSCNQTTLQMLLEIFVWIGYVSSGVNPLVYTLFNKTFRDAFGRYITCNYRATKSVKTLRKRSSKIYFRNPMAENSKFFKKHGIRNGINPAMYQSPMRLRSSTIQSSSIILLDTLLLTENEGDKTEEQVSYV

| Structure (SMILES) | EC50 [1] [nM] | EC50 [2] [nM] |
| --- | --- | --- |
| NCC1CC1c1cc(Cl)c(F)cc1OCCF (stereo unspecified) | 776 |  |
| C=CCOc1cc(F)c(Cl)cc1C1CC1CN (stereo unspecified) | 308 | 1950 |
| COc1cc(Cl)c(Cl)cc1C1CC1CN (stereo unspecified) | 13 |  |
| COc1ccc(Cl)c(Cl)c1C1CC1CN (stereo unspecified) | 1.1 |  |
| COc1ccc(F)c(F)c1C1CC1CN (stereo unspecified) | 15 |  |
| NCC1CC1c1c(OCCF)ccc(F)c1F (stereo unspecified) | 509 |  |
| NCC1CC1c1c(OCCF)ccc(Cl)c1F (stereo unspecified) | 386 |  |
| NCC1CC1c1c(OCCF)ccc(Cl)c1Cl (stereo unspecified) | 234 |  |
| C=CCOc1ccc(F)c(F)c1C1CC1CN (stereo unspecified) | 151 |  |
| N[C@@H](Cc1c[nH]c2ccc(O)cc12)C(=O)O [OXITRIPTAN] | 0.219 |  |
